Reference: patent EP4722365A1, “DOUBLE-STRANDED NUCLEOTIDE COMPOUND FOR METABOLIC DISEASES AND USE THEREOF” (Visirna Therapeutics (Suzhou) Co., Ltd., priority 2023, dated 2024)

How the values were obtained:
Format in all cases: in vivo
hDGAT2 = experiment: Mouse model receiving hydrodynamic injection of DGAT2 plasmid via tail vein (Example 5, liver mRNA qPCR); details: for Average inhibition rate, % Day 1 after HDI (day 5 after administration): 3mpk subcutaneously day 0, HDI day 4, BALB/c mice; for Average inhibition rate, % Day 1 after HDI (day 15 after administration): 3mpk subcutaneously day 0, HDI day 14, BALB/c mice
Procedure: BALB/c mice, female, 6-7 weeks old.
pcDNA-DGAT2 plasmid, having a concentration of 2 µg/µL, diluted with physiological saline for later use.
The hydrodynamic injection scheme of DGAT2 plasmid DNA via tail vein, the administration and the sample collection method were as follows.
Treatment with compound: The day of administration to mice was defined as day 0, the day before it was day -1, the day after it was day 1, and so on. On day 0, the mice were injected subcutaneously with 5 mL/kg of the solvent or the test compound, at a dosage of 3mpk.
(§1) Hydrodynamic injection of DGAT2 plasmid DNA solution into mice via tail vein: On day 4 or 14, the plasmid DNA was prepared with normal saline before injection, and stored at 4°C until use. All mice were injected with the plasmid DNA solution in a volume of 8% of the body weight (injection volume (mL)= body weight of mice (g) x 8%) in 5 seconds via the tail vein, and the weight of plasmid injected into each mouse was 10 µg.
Endpoint of the experiment and collection of liver samples: On day 5 or 15, that is, 24 hrs after the hydrodynamic injection of DGAT2 plasmid via the tail vein, all mice were euthanized by CO2 inhalation. After euthanasia, blood samples were collected from the heart and liver samples were collected. 2 liver tissues of about 70 mg were immersed in RNAlater®, and incubated overnight at 4 °C. The supernatant was discarded and the remainder was transferred to a freezer at -80°C, for mRNA detection later.
RNA in the liver was extracted with Trizol. The method was briefly described as follows: 50-70 mg of liver tissue and 1.2 mL of Trizol were homogenized with Qiagen Tissue Lyser II at 26 Hz for 2 min and lyzed at room temperature for 5 min. 1 mL of the supernatant was taken, added to 200 uL of chloroform, vigorously shaken for 15 s, allowed to stand for 3 min, and centrifuged. The supernatant was collected, added with an equal volume of isopropanol, and stood overnight at -20°C for precipitation. The precipitate was washed twice with 70% , and dissolved in water without RNase. The concentration of the RNA sample was determined by Nanodrop ONE and diluted to 400 ng/uL with water without RNase for reverse transcription.
The experimental steps of reverse transcription could be made reference to the instruction of FastKing cDNA first strand synthesis kit (genome clean). Briefly, a gDNA removal mixture was prepared according to Table 6. The mixture (5 µL/sample) and 400 ng/µL RNA sample were added to a 96-well PCR reaction plate, incubated at 42°C for 3 min, and cooled on ice. A mixture for reverse transcription was prepared according to Table 7. The reverse transcription mixture (10 µL/sample) and the DNA removal product of the previous step were added to a 96-well PCR reaction plate, for reverse transcription. Reaction conditions: 42°C for 15 min; and 95°C for 3 min. The cDNA was stored at 4°C for further analysis. Table 6. Ingredients for gDNA-removal reaction
Reaction conditions: 95°C for 10 min; and 40 cycles of 95°C for 15 s, and 60°C for 1 min. Table 8. Ingredients for qPCR Reaction (DGAT2)
(§2) The expression of the target gene in each sample was analyzed by relative quantification using ΔΔCt method. In this method, the Ct difference (ΔCt) between the target gene (DGAT2) and the internal reference gene (Neo) was determined, and the ΔCt value of the sample treated with the compound was compared with that of the control group.
The formula is: ΔCt = average Ct value of target gene−average Ct value of reference gene. [formula] [formula]
Data analysis: The data are expressed as the average of each group of mouse samples ± standard error. Unless otherwise specified, n=4 or 5. Student's t test was used for statistical analysis. Table 10.1 Test for evaluating the in-vivo inhibitory activity of siRNA compounds on target gene DGAT2 in mice model receiving hDGAT2 HDI 5 days after administration

human DGAT2 [1] = experiment: Mice receiving hydrodynamic injection of human DGAT2 plasmid via the tail vein (Example 8); details: 3 mg/kg subcutaneous single dose day 0; BALB/c mice, liver DGAT2 mRNA
Procedure: (§3) Animals: BALB/c mice, female, 6-7 weeks old.
(§4) DGAT2 plasmid DNA: pcDNA-DGAT2 plasmid, having a concentration of 2 µg/µL, diluted with physiological saline for later use.
Experimental method: The in-vivo experimental designs for the hydrodynamic injection of DGAT2 plasmid DNA, the administration and the sample collection method were shown in the table below.
Treatment with compound: The day of administration to mice was defined as day 0, the day before it was day -1, the day after it was day 1, and so on. On day 0, the mice were injected subcutaneously with 5 mL/kg of the solvent or the test compound,
Hydrodynamic injection of DGAT2 plasmid DNA solution into mice via tail vein: On day 14, the plasmid DNA was prepared with normal saline before injection, and stored at 4°C until use. […]
(§5) Quantitative PCR detection of DGAT2 gene expression in mouse liver: RNA in the liver was extracted with Trizol. The concentration of the RNA sample was determined by Nanodrop ONE (ultra-micro ultraviolet-visible spectrophotometer) and diluted to 400 ng/uL with water without RNase for reverse transcription. Quantitative PCR detection of DGAT2 and NEO gene expressions in mouse liver: […]

human DGAT2 [2] = experiment: Mice receiving hydrodynamic injection of human DGAT2 plasmid via the tail vein (Example 7); details: 3 mg/kg subcutaneous single dose day 0; BALB/c mice, liver DGAT2 mRNA
Procedure: as §3, §4
The in-vivo experimental designs for the hydrodynamic injection of DGAT2 plasmid DNA via the tail vein, the administration, and the sample collection method were shown in the table below.
Treatment with compound: The day of administration to mice was defined as day 0, the day before it was day -1, the day after it was day 1, and so on. On day 0, the mice were injected subcutaneously with 5 mL/kg of the solvent or the test compound.
as §1, with “day” for “day 4 or”, “µg. […]” for “µg.”
as §5, with “RNA” for “Quantitative PCR detection of DGAT2 gene expression in mouse liver: RNA”

DGAT2 = experiment: Inhibitory activity on the target gene DGAT2 in mice (Example 6, liver mRNA RT-PCR); details: 3 mg/kg SC, day 0, once; C57BL/6 mice, liver mRNA day 7
Description: Animals: Male C57BL/6 mice, 6 weeks old, without particular pathogens. Before the experiment, the animals were allowed to acclimate to the environment for 7 days.
Solvent: phosphate buffer (PBS).
In-vivo experiment: The in-vivo experimental designs for the animal administration and the sample collection method were shown in the table below.
Definition of days of experiment: The day of first administration to mice was defined as day 0, the day before it was day -1, the day after it was day 1, and so on.
All mice were given a single dose of PBS, the control compound or the test compound by SC on day 0. On day 7, blood was taken from the submandibular vein plexus mice, and the plasma was collected. Then the mice were euthanized. Blood was taken from the heart for later use. The liver was collected for analysis of target mRNA level in the liver.
Sample detection and analysis: RT-PCR was used to quantitatively detect the level of target mRNA in liver tissue.
as §2, with “(GAPDH)” for “(Neo)”, “group. […]” for “group.”
Data analysis: The data are expressed as the average of each group of mouse samples ± standard error. […]

## dS303: sense (invAb)*uguacauaUfUfCfugcacugauu*(invAb)[L96]; anti-sense a* Af*u*CfaGfugcagAfaUfaUfgUfaCf*a
hDGAT2
  Average inhibition rate, % Day 1 after HDI (day 5 after administration): 85.53%

## dS304: sense (invAb)*cgcuacuuUfCfGfagacuacuuu*(invAb)[L96]; anti-sense a*Af*a*GfuAfgucucGfaAfaGfuAfgCf*g
hDGAT2
  Average inhibition rate, % Day 1 after HDI (day 5 after administration): 66.33%

## dS302: sense (invAb)*acaccauaGfAfCfuauuugcuuu*(invAb)[L96]; anti-sense a* Af*a*GfcAfaauagUfcUfaUfgGfuGf*u
hDGAT2
  Average inhibition rate, % Day 1 after HDI (day 5 after administration): 97.46%
  Average inhibition rate, % Day 1 after HDI (day 15 after administration): 70.35%
Human DGAT2 [1]
  Average inhibition rate, % (Day 15 after administration): 70.4%

## dS301: sense (invAb)*gaagaaguUfCfCfagaaauacau*(invAb)[L96]; anti-sense a*Uf*g*UfaUfuucugGfaAfcUfuCfuUf*c
hDGAT2
  Average inhibition rate, % Day 1 after HDI (day 5 after administration): 91.68%
  Average inhibition rate, % Day 1 after HDI (day 15 after administration): 78.89%
Human DGAT2 [2]
  Average inhibition rate, % (Day 15 after administration): 79%

## dS305: sense [NAG37](invAb)*uggguuauUfUfAfaaagaaauua*(invAb ); anti-sense u*Af*a*UfuUfcuuuuAfaAfuAfaCfcCf*a
hDGAT2
  Average inhibition rate, % Day 1 after HDI (day 5 after administration): 95.59%

## dS306: sense [NAG37](invAb)*uguggguuAfUfUfuaaaagaaau*(invAb ); anti-sense a*Uf*u*UfcUfuuuaaAfuAfaCfcCfaCf*a
hDGAT2
  Average inhibition rate, % Day 1 after HDI (day 5 after administration): 96.72%

## dS307: sense (invAb)*ggugucugUfGfGfguuauuuaaa*(invAb)*[L96]; anti-sense Vpu*Uf*Uf*AfaauaaccCfaCfaGfacac*c
DGAT2
  Average inhibition rate (%) (7 days): 76%
hDGAT2
  Average inhibition rate, % Day 1 after HDI (day 15 after administration): 61.03%

## dS316: sense (invAb)*gaagaaguUfCfCfagaaauacaa[L96]; anti-sense Vpu*Uf*g*UfaUfuucugGfaAfcUfuCfuUf* c
Human DGAT2 [2]
  Average inhibition rate, % (Day 15 after administration): 66%
